Key:
SR = test: CCK-8 proliferation, SR; type: cell-based, Human; details: Homo sapiens; Table B6, compounds designed based on the ALK inhibitors; SR cells; read-out: Inhibitory activity (IC50, nM) on tumor cell proliferation, SR
Method in brief: (§1)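 Cells seeded, then after 24 h treated with 10 concentrations (top 10 µM, 5-fold serial dilution) for a line-specific time at 37°C, 5% CO2. Viability read by CCK-8; IC50 fitted from growth-inhibition curves.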

H2228 = test: CCK-8 proliferation, NCI-H2228 (H2228); type: cell-based; details: Homo sapiens, NCI-H2228; Table B6, compounds designed based on the ALK inhibitors; H2228 cells; read-out: Inhibitory activity (IC50, nM) on tumor cell proliferation, H2228
Method in brief: as §1

MCF7 = test: CCK-8 proliferation, MCF7 (MCF-7); type: cell-based; details: Homo sapiens, MCF7; Table B6, compounds designed based on the ALK inhibitors; MCF-7 cells; read-out: Inhibitory activity (IC50, nM) on tumor cell proliferation, MCF-7
Method in brief: as §1

H1975 = test: CCK-8 proliferation, NCI-H1975 (H1975); type: cell-based, Human; details: Homo sapiens, NCI-H1975; Table B6, compounds designed based on the ALK inhibitors; H1975 cells; read-out: Inhibitory activity (IC50, nM) on tumor cell proliferation, H1975
Method in brief: as §1

ALK = target: T1, ALK (Homo sapiens, UniProt Q96SW2+Q9HC35+Q9UM73); test: Western blot degradation of ALK (H2228 Cell); type: cell-based; details: Table D5
T1 construct: evaluate the effects of the compounds of the present disclosure on the expression of target proteins in cells; endogenous in cells; host or cells: H2228
T1 sequence (Q9HC35+Q9UM73 fused): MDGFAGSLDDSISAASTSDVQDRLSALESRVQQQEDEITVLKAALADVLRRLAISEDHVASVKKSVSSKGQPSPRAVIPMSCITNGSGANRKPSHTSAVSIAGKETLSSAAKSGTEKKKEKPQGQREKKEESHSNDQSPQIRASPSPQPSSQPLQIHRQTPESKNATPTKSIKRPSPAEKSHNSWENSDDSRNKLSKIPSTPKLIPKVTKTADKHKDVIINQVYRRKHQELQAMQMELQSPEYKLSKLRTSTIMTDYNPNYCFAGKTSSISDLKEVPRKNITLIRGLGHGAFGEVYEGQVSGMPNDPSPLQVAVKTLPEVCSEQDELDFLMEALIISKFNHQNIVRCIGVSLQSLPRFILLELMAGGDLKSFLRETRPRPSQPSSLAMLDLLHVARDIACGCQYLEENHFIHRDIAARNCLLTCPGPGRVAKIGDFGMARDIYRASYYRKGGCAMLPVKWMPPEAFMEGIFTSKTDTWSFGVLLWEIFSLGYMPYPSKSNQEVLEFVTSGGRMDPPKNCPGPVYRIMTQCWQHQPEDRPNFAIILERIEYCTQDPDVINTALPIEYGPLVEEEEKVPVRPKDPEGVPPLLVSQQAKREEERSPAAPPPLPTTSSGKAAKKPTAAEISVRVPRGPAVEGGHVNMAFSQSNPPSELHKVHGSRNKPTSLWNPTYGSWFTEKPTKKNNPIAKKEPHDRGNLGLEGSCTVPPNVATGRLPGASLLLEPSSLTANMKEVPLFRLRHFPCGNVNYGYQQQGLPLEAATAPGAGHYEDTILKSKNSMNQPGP
T1 sequence (Q96SW2 whole entry): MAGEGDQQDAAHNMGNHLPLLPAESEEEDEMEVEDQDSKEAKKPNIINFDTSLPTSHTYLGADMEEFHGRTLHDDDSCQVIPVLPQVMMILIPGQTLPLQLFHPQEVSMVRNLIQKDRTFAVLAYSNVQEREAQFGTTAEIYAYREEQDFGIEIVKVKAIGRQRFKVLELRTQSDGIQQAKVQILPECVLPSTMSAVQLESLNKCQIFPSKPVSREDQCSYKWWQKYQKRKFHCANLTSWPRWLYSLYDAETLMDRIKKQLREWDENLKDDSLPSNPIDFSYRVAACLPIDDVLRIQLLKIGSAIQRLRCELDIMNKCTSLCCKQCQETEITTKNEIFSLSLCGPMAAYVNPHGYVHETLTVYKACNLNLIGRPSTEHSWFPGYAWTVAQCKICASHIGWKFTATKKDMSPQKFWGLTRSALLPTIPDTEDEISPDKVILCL
T1 sequence (Q16531 whole entry partner): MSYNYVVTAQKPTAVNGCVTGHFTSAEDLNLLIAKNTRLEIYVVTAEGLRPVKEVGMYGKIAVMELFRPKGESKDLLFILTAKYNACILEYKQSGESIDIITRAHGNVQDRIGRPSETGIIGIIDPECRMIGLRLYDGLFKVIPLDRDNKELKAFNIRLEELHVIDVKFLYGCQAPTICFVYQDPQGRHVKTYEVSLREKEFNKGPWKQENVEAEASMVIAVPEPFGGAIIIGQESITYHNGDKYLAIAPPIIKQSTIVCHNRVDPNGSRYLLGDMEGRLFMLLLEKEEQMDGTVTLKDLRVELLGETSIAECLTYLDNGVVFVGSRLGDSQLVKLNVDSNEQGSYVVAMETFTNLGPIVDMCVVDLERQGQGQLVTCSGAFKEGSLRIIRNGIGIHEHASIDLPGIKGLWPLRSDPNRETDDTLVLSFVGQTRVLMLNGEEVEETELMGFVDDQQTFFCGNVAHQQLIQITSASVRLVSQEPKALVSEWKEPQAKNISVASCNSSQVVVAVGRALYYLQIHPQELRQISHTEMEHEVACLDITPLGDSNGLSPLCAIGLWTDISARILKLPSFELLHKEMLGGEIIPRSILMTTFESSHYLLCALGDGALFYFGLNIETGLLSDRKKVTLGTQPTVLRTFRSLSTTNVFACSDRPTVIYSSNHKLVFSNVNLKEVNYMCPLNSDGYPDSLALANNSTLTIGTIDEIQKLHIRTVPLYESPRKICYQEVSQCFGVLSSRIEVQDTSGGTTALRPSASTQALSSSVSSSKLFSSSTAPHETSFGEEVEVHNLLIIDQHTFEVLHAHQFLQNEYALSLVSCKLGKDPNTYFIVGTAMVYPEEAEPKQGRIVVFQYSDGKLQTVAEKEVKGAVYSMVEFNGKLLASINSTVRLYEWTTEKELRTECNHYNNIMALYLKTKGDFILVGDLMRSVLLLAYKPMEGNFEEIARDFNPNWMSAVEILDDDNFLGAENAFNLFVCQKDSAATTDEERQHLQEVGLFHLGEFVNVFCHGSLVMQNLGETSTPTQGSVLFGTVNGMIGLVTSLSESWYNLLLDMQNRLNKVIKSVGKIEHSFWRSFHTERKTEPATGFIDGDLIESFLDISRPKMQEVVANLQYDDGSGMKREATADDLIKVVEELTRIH
Method in brief: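 Quantification by ImageJ densitometry of Western blot bands: DC50 is the fitted concentration halving band intensity relative to DMSO. Percent remaining uses internal-control normalization, and degradation rate is its complement.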

Compound	IC50 (H2228) [nM]	IC50 (MCF7) [nM]	IC50 (H1975) [nM]	IC50 (SR) [nM]	Degradation of substrate protein ALK (substrate protein remaining %) (ALK)
CCc1cc2c(cc1N1CCN(Cc3ccc(N4CCC(=O)NC4=O)cc3)CC1)C(C)(C)c1[nH]c3cc(C#N)ccc3c1C2=O [GT-07324, 8-(4-(4-(2,4-dioxotetrahydropyrimidin-1(2H)-yl)benzyl)piperazin-1-yl)-9-ethyl-6,6-dimethyl-11-oxo-6,11-dihydro-5H-benzo[b]carbazole-3-carbonitrile]	100 to 500	500 to 1000	–	10 to 50	A (A is defined as 0% ≤ substrate protein remaining % ≤ 80%)
CCc1cc2c(cc1N1CCC(N3CCN(Cc4ccc(N5CCC(=O)NC5=O)nc4)CC3)CC1)C(C)(C)c1[nH]c3cc(C#N)ccc3c1C2=O [GT-07312, 8-(4-(4-((6-(2,4-dioxotetrahydropyrimidin-1(2H)-yl)pyridin-3-yl)methyl)piperazin-1-yl)piperidin-1-yl)-9-ethyl-6,6-dimethyl-11-oxo-6,11-dihydro-5H-benzo[b]carbazole-3-carbonitrile]	50 to 100	500 to 1000	–	1 to 10	A (A is defined as 0% ≤ substrate protein remaining % ≤ 80%)
COc1cc(N2CCC(N3CCN(Cc4cncc(N5CCC(=O)NC5=O)c4)CC3)CC2)ccc1Nc1ncc(Cl)c(Nc2ccccc2P(C)(C)=O)n1 [GT-07610, 1-(5-((4-(1-(4-((5-chloro-4-((2-(dimethylphosphoryl)phenyl)amino)pyrimidin-2-yl)amino)-3-methoxyphenyl)piperidin-4-yl)piperazin-1-yl)methyl)pyridin-3-yl)dihydropyrimidine-2,4(1H,3H)-dione]	50 to 100	500 to 1000	500 to 1000	1 to 10	A (A is defined as 0% ≤ substrate protein remaining % ≤ 80%)
COc1cc(N2CCN(Cc3ccc(N4CCC(=O)NC4=O)cc3)CC2)ccc1Nc1ncc(Cl)c(Nc2ccccc2P(C)(C)=O)n1 [GT-07345, 1-(4-((4-(4-((5-chloro-4-((2-(dimethylphosphoryl)phenyl)amino)pyrimidin-2-yl)amino)-3-methoxyphenyl)piperazin-1-yl)methyl)phenyl)dihydropyr imidine-2,4(1H,3H)-dione]	100 to 500	500 to 1000	500 to 1000	10 to 50	A (A is defined as 0% ≤ substrate protein remaining % ≤ 80%)
Cc1cc(Nc2ncc(Cl)c(Nc3ccccc3S(=O)(=O)C(C)C)n2)c(OC(C)C)cc1C1CCN(Cc2ccc(N3CCC(=O)NC3=O)cc2)CC1 [GT-07592, 1-(4-((4-(4-((5-chloro-4-((2-(isopropylsulfonyl)phenyl)amino)pyrimidin-2-yl)amino)-5-isopropoxy-2-methylphenyl)piperidin-1-yl)methyl)phenyl)dihydropyr imidine-2,4(1H,3H)-dione]	100 to 500	500 to 1000	–	10 to 50	A (A is defined as 0% ≤ substrate protein remaining % ≤ 80%)
CCc1cc2c(cc1N1CCN(Cc3ccc(N4CCC(=O)NC4=O)nc3)CC1)C(C)(C)c1[nH]c3cc(C#N)ccc3c1C2=O [GT-07327, 8-(4-((6-(2,4-dioxotetrahydropyrimidin-1(2H)-yl)pyridin-3-yl)methyl)piperazin-1-yl)-9-ethyl-6,6-dimethyl-11-oxo-6,11-dihydro-5H-benzo[b]carbazole-3-carbonitrile]	100 to 500	500 to 1000	–	1 to 10	A (A is defined as 0% ≤ substrate protein remaining % ≤ 80%)
Cc1cc(Nc2ncc(Cl)c(Nc3ccccc3S(=O)(=O)C(C)C)n2)c(OC(C)C)cc1C1CCN(Cc2ccnc(N3CCC(=O)NC3=O)c2)CC1 [GT-07596, 1-(4-((4-(4-((5-chloro-4-((2-(isopropylsulfonyl)phenyl)amino)pyrimidin-2-yl)amino)-5-isopropoxy-2-methylphenyl)piperidin-1-yl)methyl)pyridin-2-yl)dihydropyrimidine-2,4(1H,3H)-dione]	100 to 500	100 to 500	–	10 to 50	A (A is defined as 0% ≤ substrate protein remaining % ≤ 80%)

Continued, in another order:

IC50 (H2228) [nM]	IC50 (MCF7) [nM]	IC50 (H1975) [nM]	Compound	IC50 (SR) [nM]	Degradation of substrate protein ALK (substrate protein remaining %) (ALK)
100 to 500	100 to 500	500 to 1000	COc1cc(N2CCC(N(C)Cc3ccc(C4CCC(=O)NC4=O)cn3)CC2)ccc1Nc1ncc(Cl)c(Nc2ccccc2P(C)(C)=O)n1 (stereo not drawn) [GT-07698, 3-(6-(((1-(4-((5-chloro-4-((2-(dimethylphosphoryl)phenyl)amino)pyrimidin-2-yl)amino)-3-methoxyphenyl)piperidin-4-yl)(methyl)amino)methyl)pyridin-3-yl)piperidine-2,6-dione]	10 to 50	A (A is defined as 0% ≤ substrate protein remaining % ≤ 80%)
100 to 500	500 to 1000	–	COc1cc(N2CCC(N(C)Cc3ccnc(C4CCC(=O)NC4=O)c3)CC2)ccc1Nc1ncc(Cl)c(Nc2ccccc2P(C)(C)=O)n1 (stereo not drawn) [GT-07697, 3-(4-(((1-(4-((5-chloro-4-((2-(dimethylphosphoryl)phenyl)amino)pyrimidin-2-yl)amino)-3-methoxyphenyl)piperidin-4-yl)(methyl)amino)methyl)pyridin-2-yl)piperidine-2,6-dione]	10 to 50	A (A is defined as 0% ≤ substrate protein remaining % ≤ 80%)
100 to 500	500 to 1000	500 to 1000	COc1cc(N2CCN(Cc3cccc(NC4CCC(=O)NC4=O)c3)CC2)ccc1Nc1ncc(Cl)c(Nc2ccccc2P(C)(C)=O)n1 (stereo not drawn) [GT-07351, 3-((3-((4-(4-((5-chloro-4-((2-(dimethylphosphoryl)phenyl)amino)pyrimidin-2-yl)amino)-3-methoxyphenyl)piperazin-1-yl)methyl)phenyl)amino)pip eridine-2,6-dione]	10 to 50	A (A is defined as 0% ≤ substrate protein remaining % ≤ 80%)
100 to 500	500 to 1000	100 to 500	COc1cc(N2CCN(Cc3ccc(N4CCC(=O)NC4=O)c(F)c3)CC2)ccc1Nc1ncc(Cl)c(Nc2ccccc2P(C)(C)=O)n1 [GT-07346, 1-(4-((4-(4-((5-chloro-4-((2-(dimethylphosphoryl)phenyl)amino)pyrimidin-2-yl)amino)-3-methoxyphenyl)piperazin-1-yl)methyl)-2-fluorophenyl)dihydropyrimidine-2,4(1H,3H)-dione]	10 to 50	A (A is defined as 0% ≤ substrate protein remaining % ≤ 80%)
50 to 100	100 to 500	100 to 500	COc1cc(N2CCC(N(C)Cc3ccc(N4CCC(=O)NC4=O)nc3)CC2)ccc1Nc1ncc(Cl)c(Nc2ccccc2P(C)(C)=O)n1 [GT-07691, 1-(5-(((1-(4-((5-chloro-4-((2-(dimethylphosphoryl)phenyl)amino)pyrimidin-2-yl)amino)-3-methoxyphenyl)piperidin-4-yl)(methyl)amino)methyl)pyridin-2-yl)dihydropyrimidine-2,4(1H,3H)-dione]	1 to 10	A (A is defined as 0% ≤ substrate protein remaining % ≤ 80%)
100 to 500	500 to 1000	500 to 1000	COc1cc(N2CCC(N(C)Cc3cc(C4CCC(=O)NC4=O)cnc3F)CC2)ccc1Nc1ncc(Cl)c(Nc2ccccc2P(C)(C)=O)n1 (stereo not drawn) [GT-07696, 3-(5-(((1-(4-((5-chloro-4-((2-(dimethylphosphoryl)phenyl)amino)pyrimidin-2-yl)amino)-3-methoxyphenyl)piperidin-4-yl)(methyl)amino)methyl)-6-fluoropyridin-3-yl)piperidine-2,6-dione]	10 to 50	A (A is defined as 0% ≤ substrate protein remaining % ≤ 80%)
100 to 500	500 to 1000	500 to 1000	COc1cc(N2CCC(N3CCN(Cc4cncc(C5CCC(=O)NC5=O)c4)CC3)CC2)ccc1Nc1ncc(Cl)c(Nc2ccccc2P(C)(C)=O)n1 (stereo not drawn) [GT-07614, 3-(5-((4-(1-(4-((5-chloro-4-((2-(dimethylphosphoryl)phenyl)amino)pyrimidin-2-yl)amino)-3-methoxyphenyl)piperidin-4-yl)piperazin-1-yl)methyl)pyridin-3-yl)piperidine-2,6-dione]	1 to 10	A (A is defined as 0% ≤ substrate protein remaining % ≤ 80%)
50 to 100	100 to 500	500 to 1000	COc1cc(N2CCC(N(C)Cc3ccc(N4CCC(=O)NC4=O)cn3)CC2)ccc1Nc1ncc(Cl)c(Nc2ccccc2P(C)(C)=O)n1 [GT-07617, 1-(6-(((1-(4-((5-chloro-4-((2-(dimethylphosphoryl)phenyl)amino)pyrimidin-2-yl)amino)-3-methoxyphenyl)piperidin-4-yl)(methyl)amino)methyl)pyridin-3-yl)dihydropyrimidine-2,4(1H,3H)-dione]	10 to 50	A (A is defined as 0% ≤ substrate protein remaining % ≤ 80%)

From patent EP4678638A1, “NEW E3 UBIQUITIN LIGASE LIGAND, PROTEIN DEGRADATION AGENT AND USE THEREOF” (priority 2023, dated 2024)
